These results are taken from patent US5739162A, “Carbamoylmethylurea derivatives” (Shionogi & Co., Ltd., priority 1994, dated 1998).

One experiment addresses T1, CCK-A receptor (Mus musculus, UniProt O08786).
T1 construct: crude membrane specimen from mouse pancreas; from tissue; host or cells: pancreas of male ddY mice, crude membranes
T1 sequence (O08786 1-436): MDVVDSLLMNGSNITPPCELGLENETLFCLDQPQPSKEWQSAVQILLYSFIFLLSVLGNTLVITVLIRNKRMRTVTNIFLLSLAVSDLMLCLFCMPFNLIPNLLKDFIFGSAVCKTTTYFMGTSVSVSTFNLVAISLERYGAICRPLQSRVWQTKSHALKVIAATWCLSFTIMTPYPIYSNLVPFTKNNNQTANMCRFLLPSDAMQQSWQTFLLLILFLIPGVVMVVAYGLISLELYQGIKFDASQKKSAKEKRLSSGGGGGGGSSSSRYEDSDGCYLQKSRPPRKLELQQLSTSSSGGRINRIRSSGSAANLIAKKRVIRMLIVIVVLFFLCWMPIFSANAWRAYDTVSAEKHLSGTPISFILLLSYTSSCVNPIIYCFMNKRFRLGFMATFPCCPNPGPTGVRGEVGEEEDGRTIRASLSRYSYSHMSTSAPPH
Briefly: CCK-A receptor antagonism: displacement of [3H]CCK-8 from crude membrane of pancreas. The class given is binding, mouse (male ddY). Particulars: [3H]CCK-8 1 nM, 90 min, 25° C. The method, then:
(§1) The pharmacological effect of compounds (I) prepared in Examples above were evaluated in vitro with respect to antagonistic activity against gastrin receptor, CCK-B receptor or CCK-A receptor, using fundic gland cells of guinea pig, crude membrane specimen from mouse cerebral cortex, or crude membrane specimen from mouse pancreas, respectively.
(§2) Male Hartley guinea pig (450-600 g) or male ddY mouse (24-30 g) were used.
(§3) (2) CCK-A Receptor Antagonism and CCK-B Receptor Antagonism Preparation of CCK receptor preparations Male ddY mice (24 to 30 g) were killed by decapitation and cerebral cortex (CCK-B) and pancreas (CCK-A) were extracted immediately. Each of cerebral cortex and pancreas was mixed with 50 mM Tris-HCl buffer (pH 7.4) and homogenized with a teflon-glass homogenizer and polytron homogenizer to obtain crude membrane specimens.
(§4) Preparation of test compounds and procedures of displacing assay
(§5) A 1M solution of a compound to be tested in DMSO is prepared and diluted with 50% DMSO to obtain a ten-fold dilution series.
(§6) The reaction is initiated by the addition of crude membrane specimen to solutions of different concentration each containing [^3 H]CCk-8 (final concentration, 1 nM). The mixture is incubated for 90 min at 25° C., filtered through glass filter with aspiration and washed with a cooled 50 mM Tris buffer. After the addition of Aquazol-2 cocktail the radioactivity is counted. The same procedure was repeated using 50% DMSO solution or Ceruletide (final concentration, 1 μM) instead of a solution of test compound so as to obtain the control value regarding total binding or the value regarding non-specific binding, respectively.
(§7) The IC50 was determined by plotting the ratio (%) of specific binding of a test compound to that of control on semilogarithmic graph and obtaining the concentration corresponding to 50%, wherein: specific binding of control=total binding (cpm)--non-specific binding (cpm); and specific binding of test compound=total binding (cpm)--non-specific binding (cpm).
A general note: Displacement assays read how much labelled ligand stays bound in the presence of the test substance.

In another experiment the target is T2, gastrin receptor (Cavia porcellus, UniProt H0VZC5).
T2 construct: stomach was extracted from each animal immediately, from which gastric glands were prepared; from tissue; host or cells: gastric (fundic) glands of male Hartley guinea pigs
T2 sequence (H0VZC5 1-426): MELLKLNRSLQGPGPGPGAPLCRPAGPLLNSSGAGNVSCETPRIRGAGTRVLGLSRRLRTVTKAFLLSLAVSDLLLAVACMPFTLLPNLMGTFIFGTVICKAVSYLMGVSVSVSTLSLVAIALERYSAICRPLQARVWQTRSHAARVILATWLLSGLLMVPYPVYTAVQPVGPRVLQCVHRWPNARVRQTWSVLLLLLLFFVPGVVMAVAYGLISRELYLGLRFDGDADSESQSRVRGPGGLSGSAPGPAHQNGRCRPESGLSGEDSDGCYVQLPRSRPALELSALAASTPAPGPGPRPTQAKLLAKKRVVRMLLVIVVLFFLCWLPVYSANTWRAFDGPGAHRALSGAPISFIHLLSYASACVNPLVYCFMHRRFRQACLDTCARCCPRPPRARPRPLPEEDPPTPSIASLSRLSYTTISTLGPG
As to the kind of experiment: Gastrin receptor antagonism: displacement of 125I-labeled gastrin from gastric glands. The class given is binding, guinea pig (male Hartley). The settings on record: guinea pig fundic gastric glands; 125I-gastrin 0.2 nM; 30 min, 25° C. The method, then:
as §1, §2
(1) Gastrin Receptor Antagonism
Preparation of gastric glands
Male Hadley guinea pigs (450-600 g) were killed by bleeding and stomach was extracted from each animal immediately, from which gastric glands were prepared.
Preparation of test compounds and procedures of displacing assay A 1M solution of a compound to be tested in DMSO is prepared and diluted with 50% DMSO to obtain a ten-fold dilution series.
The reaction is initiated by the addition of gastric glands to solutions of different concentration each containing ^125 I-labeled gastrin (final concentration, 0.2 nM). The mixture is incubated for 30 min at 25° C., centrifuged at 2000 rpm for 5 min and the supernatant is removed by aspiration. To the pellet is added ice-cooled incubation buffer and mixed gently, followed by an immediate centrifugation and removal of the supernatant by aspiration. The radioactivity is counted on gamma counter. The same procedure was repeated using 50% DMSO solution or human gastrin I (final concentration, 2 μM) instead of a solution of test compound so as to obtain the control value regarding total binding or the value regarding non-specific binding, respectively.
as §7

A further experiment concerns gastric acid secretion. Briefly: Inhibitory effect on pentagastrin-stimulated gastric acid secretion in anesthetized rat (perfused stomach, Schild method). The class given is in vivo, rat (Sprague Dawley). Particulars: intraduodenal (i.d.), 0.5% M.C. suspension. The source says: Anti-acid secreting function of carbamoylmethylurea derivative (I) of the present invention has been confirmed by the in vivo experiment (cf. Schild Method; Experiment 1 below). […] From the results of these experiments, it is apparent that the carbamoylmethylurea derivative (I) has an anti-acid secreting function, and is an excellent gastrin receptor antagonist and/or CCK-B receptor antagonist which has enough functional separativeness from CCK-A receptor.
Experiment 1 In Vivo Test
Evaluation of Inhibitory Effect on Gastric Acid Secretion by Child Method
Twenty four hour starved (ad libitum for water) male Sprague Daily rats (8-week-old) were anesthetized with urethane (1.5 g/kg S.C.) and kept breathing with esophagus cannulas. After laparotomy, esophagus cannulas were inserted orally up to proventriculus and ligated around gastric cardiac. Perfusion cannulas were inserted from duodenum into stomach and ligated around pylorus. Another cannulas were placed into duodenum and ligated for administration of drug. After sutra of abdomen, stomach was perfused via the esophagus cannulas with physiological saline (37° C.) while collecting perfusate for a 15 min interval. The perfusate was subjected to titration with 0.001N NaOH solution to determine the acidity. When the basal acid secretion became stable, pentagastrin ([…])was administered in a sustained manner via common carotid vein for about 90 min until the acid secretion reached approximately the highest level, when a test compound (0.5% M.C. suspension) was administered into duodenum through cannulas. The perfusate was collected for a 15 min interval to monitor the acid secretion for 90 min. The percent inhibition was calculated as follows:
Percent inhibition (%)=100×(A-B)/(C-B)
A: the minimum value of total acidity observed after the administration of a test compound;
B: the total acidity obtained immediately before the administration of pentagastrin; and
C: the total acidity obtained immediately before the administration of a test compound.

In the next experiment the target is T3, CCK-B receptor (Mus musculus, UniProt P56481).
T3 construct: crude membrane specimen from mouse cerebral cortex; from tissue; host or cells: cerebral cortex of male ddY mice, crude membranes
T3 sequence (P56481 1-453): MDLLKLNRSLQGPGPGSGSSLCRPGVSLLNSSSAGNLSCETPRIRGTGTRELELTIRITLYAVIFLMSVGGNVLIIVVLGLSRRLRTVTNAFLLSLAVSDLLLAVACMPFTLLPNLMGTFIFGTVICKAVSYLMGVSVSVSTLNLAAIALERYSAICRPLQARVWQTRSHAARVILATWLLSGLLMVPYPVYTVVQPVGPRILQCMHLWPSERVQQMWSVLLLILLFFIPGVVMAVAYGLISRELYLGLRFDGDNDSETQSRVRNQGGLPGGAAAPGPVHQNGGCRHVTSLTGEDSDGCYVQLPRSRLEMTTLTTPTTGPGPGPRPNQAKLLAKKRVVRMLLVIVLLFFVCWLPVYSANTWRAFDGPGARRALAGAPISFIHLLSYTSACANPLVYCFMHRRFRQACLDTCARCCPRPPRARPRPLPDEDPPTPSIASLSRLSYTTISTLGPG
Briefly: CCK-B receptor antagonism: displacement of [3H]CCK-8 from crude membrane of cerebral cortex. The settings on record: [3H]CCK-8 1 nM, 90 min, 25° C. The class given is binding, mouse (male ddY). On the procedure: as §1, §2, §3, §4, §5, §6, §7

The structures appear in SMILES notation. Structures can show the parent of a compound that is named as a salt.

By IC50 is commonly meant the concentration at which inhibition is half-maximal. On to `CC(C)(C)OC(=O)CN(C(=O)CNC(=O)Nc1cccc(C(=O)O)c1)c1ccccc1C(=O)c1ccccc1` [Compound 8ha, 2-[(tert-Butoxycarbonylmethyl)-[3-(m-(carboxylphenyl)ureidomethylcarbonyl]]aminobenzophenone sodium salt], for which the IC50 on CCK-A receptor was 3400 nM; at gastrin receptor, 2 nM; on CCK-B receptor, 42 nM. The “Inhibitory Effect on acid secretion in rat ED50, i.d.” value with gastric acid secretion (sodium salt) stood at 0.003 mg/kg.
For orientation: ED50 means the dose that gives a 50% effect, or the effect in half of the subjects. With `COC(=O)c1cccc(NC(=O)NCC(=O)N(CC(=O)OC(C)(C)C)c2ccccc2C(=O)c2ccccc2)c1` [Compound 9l, 2-(N-(tert-Butoxycarbonylmethyl)-N'-(m-(carbomethoxy)phenyl)ureidomethylcarbonylamino)benzophenone], the IC50 on CCK-A receptor amounted to 1350 nM; at gastrin receptor it was 7 nM; on CCK-B receptor, 56 nM. The 50% effective dose (ED50) with gastric acid secretion (Rattus norvegicus) was determined as 0.04 mg/kg.
`CC(C)(C)OC(=O)CN(C(=O)CNC(=O)Nc1cccc(C(=O)O)c1)c1ccccc1C(=O)c1ccccc1` [Compound 8h]: the IC50 on CCK-A receptor amounted to 5000 nM; at gastrin receptor, 4 nM; on CCK-B receptor it was 64 nM. For the same molecule, in the experiment on gastric acid secretion, the “Inhibitory Effect on acid secretion in rat ED50, i.d.” value came to 0.014 mg/kg.
As to `Cc1cccc(NC(=O)N[C@@H]2N=C(c3ccccc3)c3ccccc3N(CC(=O)c3ccccc3C)C2=O)c1` [YM-022, reference compound], the IC50 stood at 100 nM at CCK-A receptor, 2 nM at gastrin receptor and 2 nM on CCK-B receptor. In addition, the ED50 in the experiment with gastric acid secretion was 0.107 mg/kg.
